# Molecular target: T1, factor D (Homo sapiens, UniProt P00746)
# T1 construct: made in house; host or cells: E. coli
# Assay: factor D inhibition assay of Biological Example 2
# Format: biochemical
# T1 sequence (P00746 26-253): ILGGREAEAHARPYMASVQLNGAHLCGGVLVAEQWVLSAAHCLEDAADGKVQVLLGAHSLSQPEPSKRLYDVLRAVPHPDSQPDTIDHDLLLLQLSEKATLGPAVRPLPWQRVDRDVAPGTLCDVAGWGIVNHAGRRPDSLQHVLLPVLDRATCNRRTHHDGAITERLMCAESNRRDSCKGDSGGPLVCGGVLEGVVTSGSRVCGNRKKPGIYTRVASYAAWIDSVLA
row,IC50 [nM],Compound
1,8,C[C@@H](N)c1cccc(-c2cc(COc3ccccc3CC(=O)O)cc(COC3CCOc4ccc(Cl)cc43)c2)c1 (stereo partly shown) [Example 120-T]
2,148,CCC[C@@H](N)c1cccc(-c2cc(COc3ccccc3CC(=O)O)cc(N3CCCC3)c2)c1F [Example 199-A]
3,14,"C[C@@H](N)c1cccc(-c2cc(COc3ccccc3CC(=O)O)cc(OCC3(C)COC3)c2)c1 [Example 263, (R)-2-(2-((3′-(1-aminoethyl)-5-((3-methyloxetan-3-yl)methoxy)-[1,1′-biphenyl]-3-yl)methoxy)phenyl)acetic acid]"
4,17,COC(C)c1cc(COc2ccccc2CC(=O)O)cc(-c2cccc([C@H](N)CO)c2)c1 (stereo partly shown) [Example 120-E]
5,10,"C[C@@H](N)c1cccc(-c2cc(COc3ccccc3CC(=O)O)cc(C(O)C(F)(F)F)c2)c1 (single isomer, unassigned) [116-H b) (tr = 3.0 min)]"
6,11,NCc1cc(F)cc(-c2cc(NCc3ccncc3)cc(C(=O)Nc3ccccc3CC(=O)O)c2)c1 [Example 14-B]
7,10,"C[C@@H](N)c1cccc(-c2cc(COc3ccccc3CC(=O)O)cc(NCC3(C)CC3)c2)c1F [Example 227, (R)-2-(2-((3′-(1-aminoethyl)-2′-fluoro-5-(((1-methylcyclopropyl)methyl)amino)-[1,1′-biphenyl]-3-yl)methoxy)phenyl)acetic acid]"
8,5050,"COC(=O)Cc1ccccc1NC(=O)c1ccc(OC)c(-c2cccc(CN)c2)c1 [Example 8-A, Methyl 2-(2-(3′-(aminomethyl)-6-methoxy-[1,1′-biphenyl]-3-ylcarboxamido)phenyl)acetate]"
9,9,"NCc1cc(F)cc(-c2cc(Nc3ccccc3)cc(C(=O)Nc3ccccc3CC(=O)O)c2)c1 [Example 13-B, 2-(2-(3′-(Aminomethyl)-5′-fluoro-5-(phenylamino)-[1,1′-biphenyl]-3-ylcarboxamido)phenyl)acetic acid]"
10,190,"NCc1cc(Cl)cc(-c2cccc(COc3ccccc3CC(=O)O)c2)c1 [Example 291, 2-(2-((3′-(aminomethyl)-5′-chloro-[1,1′-biphenyl]-3-yl)methoxy)phenyl)acetic acid]"
11,353,"COc1ccc(C(=O)Nc2ccccc2CC(=O)O)cc1-c1cccc(CN)c1 [Example 8-B, 2-(2-(3′-(Aminomethyl)-6-methoxy-[1,1′-biphenyl]-3-ylcarboxamido)phenyl)acetic acid]"
12,26900,"CCOC(=O)Cc1ccccc1OCc1cc(NC[C@H]2CCCO2)cc(-c2cccc([C@@H](C)N)c2F)c1 [Example 249, Ethyl 2-(2-((3′-((R)-1-aminoethyl)-2′-fluoro-5-((((R)-tetrahydrofuran-2-yl)methyl)amino)-[1,1′-biphenyl]-3-yl)methoxy)phenyl)acetate]"
13,11,"CCOc1cc(COc2ccccc2CC(=O)O)cc(-c2cccc(C(N)CF)c2F)c1 (stereo not shown) [Example 258-C, 2-(2-((3′-(1-amino-2-fluoroethyl)-5-ethoxy-2′-fluoro-[1,1′-biphenyl]-3-yl)methoxy)phenyl)acetic acid]"
14,65,CCC[C@@H](N)c1cccc(-c2cc(COc3ccccc3CC(=O)O)cc(NC[C@@H]3CCCO3)c2)c1F [Example 199-C]
15,45,N[C@H](CO)c1cccc(-c2cccc(COc3ccccc3CC(=O)O)c2)n1 [Example 138-K]
16,244,"CNC(=O)c1cc(C(=O)Nc2ccccc2CC(=O)O)cc(-c2cccc(CN)c2)c1 [Example 7-D, 2-(2-(3′-(Aminomethyl)-5-(methylcarbamoyl)-[1,1′-biphenyl]-3-ylcarboxamido)phenyl)acetic acid]"
17,4,"C[C@@H](N)c1cccc(-c2cc(COc3ccccc3CC(=O)O)c(F)c(NCC3CCCO3)c2)c1F (mixture of isomers) [Example 221 b), 2-(2-((3′-((R)-1-aminoethyl)-2′,4-difluoro-5-(((tetrahydrofuran-2-yl)methyl)amino)-[1,1′-biphenyl]-3-yl)methoxy)phenyl)acetic acid]"
18,263,"CCC[C@@H](N)c1cccc(-c2cccc(COc3c(F)cccc3CC(=O)O)c2)c1 [Example 194, (R)-2-(2-((3′-(1-Aminobutyl)-[1,1′-biphenyl]-3-yl)methoxy)-3-fluorophenyl)acetic acid]"
19,1120,N[C@H](CCO)c1cccc(-c2cccc(COc3ccccc3CC(=O)O)c2)n1 [Example 190-H]
20,6,"NCc1cc(F)cc(-c2cc(OC[C@H]3CCCO3)cc(C(=O)Nc3ccccc3CC(=O)O)c2)c1 [Example 76, (R)-2-(2-(3′-(Aminomethyl)-5′-fluoro-5-((tetrahydrofuran-2-yl)methoxy)-[1,1′-biphenyl]-3-ylcarboxamido)phenyl)acetic acid]"
21,5,NCc1cc(F)cc(-c2cc(NCC3CCOC3)cc(C(=O)Nc3ccccc3CC(=O)O)c2)c1 (stereo not shown) [Example 79-A]
22,2240,"NCc1cc(F)cc(-c2cc(C(=O)O)cc(C(=O)Nc3ccccc3CC(=O)O)c2)c1 [Example 95-B, 3′-(Aminomethyl)-5-((2-(carboxymethyl)phenyl)carbamoyl)-5′-fluoro-[1,1′-biphenyl]-3-carboxylic acid]"
23,260,C[C@@](N)(CO)c1cccc(-c2cccc(COc3ccccc3CC(=O)O)c2)c1 [Example 142-F]

row,IC50 [nM],Compound
1,4,"C[C@@H](N)c1cccc(-c2cc(COc3ccccc3CC(=O)O)cc(NC[C@H]3CCCO3)c2)c1F [Example 153, 2-(2-((3′-((R)-1-Aminoethyl)-2′-fluoro-5-((((R)-tetrahydrofuran-2-yl)methyl)amino)-[1,1′-biphenyl]-3-yl)methoxy)phenyl)acetic acid]"
2,1140,"NCc1cccc(-c2cccc(COc3ccccc3CC(=O)O)n2)c1 [Example 160, 2-(2-((6-(3-(aminomethyl)phenyl)pyridin-2-yl)methoxy)phenyl)acetic acid]"
3,15,C[C@@H](N)c1cccc(-c2cc(COc3ccccc3CC(=O)O)cc(OCc3ncn(C)n3)c2)c1F [Example 214-K]
4,6,"C[C@@H](N)c1cccc(-c2ccc(C3CC3)c(COc3ccccc3CC(=O)O)c2)c1F [Example 280, (R)-2-(2-((3′-(1-aminoethyl)-4-cyclopropyl-2′-fluoro-[1,1′-biphenyl]-3-yl)methoxy)phenyl)acetic acid]"
5,106,"NCc1cc(F)cc(-c2cccc(C(=O)Nc3ccccc3CC(=O)O)c2)c1 [Example 6-B, 2-(2-(3′-(Aminomethyl)-5′-fluoro-[1,1′-biphenyl]-3-ylcarboxamido)phenyl)acetic acid]"
6,10,NCc1cccc(-c2cccc(COc3cc(C(N)=O)ccc3CC(=O)O)c2)c1 [Example 294-C]
7,4,NCc1cccc(-c2cc(COc3ccccc3CC(=O)O)cc(C(NC(=O)c3ccccc3)C(F)(F)F)c2)c1 (stereo not shown) [Example 208-D]
8,3,COCc1cc(COc2ccccc2CC(=O)O)cc(-c2cccc([C@@H](C)N)c2)c1 [Example 120-C]
9,13,"C[C@@H](N)c1cccc(-c2ccc(Cl)c(COc3ccccc3CC(=O)O)c2)c1F [Example 275, (R)-2-(2-((3′-(1-aminoethyl)-4-chloro-2′-fluoro-[1,1′-biphenyl]-3-yl)methoxy)phenyl)acetic acid]"
10,9,"COCCNc1cc(COc2ccccc2CC(=O)O)cc(-c2cccc([C@@H](C)N)c2F)c1 [Example 223-B, (R)-2-(2-((3′-(1-aminoethyl)-2′-fluoro-5-((2-methoxyethyl)amino)-[1,1′-biphenyl]-3-yl)methoxy)phenyl)acetic acid]"
11,1790,"NCc1ccnc(-c2cccc(COc3ccccc3CC(=O)O)c2)n1 [Example 158-C, 2-(2-((3-(4-(Aminomethyl)pyrimidin-2-yl)benzyl)oxy)phenyl)acetic acid]"
12,174,"NCc1cc(F)cc(-c2cccc(COc3ccccc3CC(=O)O)c2)c1 [Example 187, 2-(2-((3′-(Aminomethyl)-5′-fluoro-[1,1′-biphenyl]-3-yl)methoxy)phenyl)acetic acid]"
13,15,"C[C@@H](N)c1cccc(-c2cc(COc3ccccc3CC(=O)O)cc(C(O)C(F)(F)F)c2)c1 (single isomer, unassigned) [116-H b) (tr = 4.6 min)]"
14,17,"N[C@H](CO)c1cccc(-c2ccc(OC(F)(F)F)c(COc3ccccc3CC(=O)O)c2)c1 [Example 188, (S)-2-(2-((3′-(1-Amino-2-hydroxyethyl)-4-(trifluoromethoxy)-[1,1′-biphenyl]-3-yl)methoxy)phenyl)acetic acid]"
15,6,"N[C@H](CO)c1cccc(-c2cc(COc3ccccc3CC(=O)O)cc(C(F)(F)F)c2)c1 [Example 114-B, (S)-2-(2-((3′-(1-Amino-2-hydroxyethyl)-5-(trifluoromethyl)-[1,1′-biphenyl]-3-yl)methoxy)phenyl)acetic acid]"
16,4,NCc1cccc(-c2cc(COc3ccccc3CC(=O)O)cc(-c3ccn[nH]3)c2)c1 [Example 209-B]
17,70,N#Cc1ccc(OCc2cccc(-c3cccc(CN)c3)c2)c(CC(=O)O)c1 [Example 294-F]
18,10,CC(=O)NCc1ccc(CC(=O)O)c(OCc2cccc(-c3cccc(CN)c3)c2)c1 [Example 294-D]
19,27,"N[C@H](CCO)c1cccc(-c2cc(COc3ccccc3CC(=O)O)cc(NCC3CC3)c2)c1 [Example 94-C, (R)-2-(2-((3′-(1-amino-3-hydroxypropyl)-5-((cyclopropylmethyl)amino)-[1,1′-biphenyl]-3-yl)methoxy)phenyl)acetic acid]"
20,50,"NCc1cccc(-c2nc(C(=O)Nc3ccccc3CC(=O)O)cs2)c1 [Example 27, 2-(2-(2-(3-(Aminomethyl)phenyl)thiazole-4-carboxamido)phenyl)acetic acid]"
21,11,"CC(O)c1cc(COc2ccccc2CC(=O)O)cc(-c2cccc([C@H](N)CO)c2)c1 (single isomer, unassigned) [116-E b) (tr = 3.8 min)]"
22,3270,CC(C)(N)c1cccc(-c2cccc(COc3ccccc3CC(=O)O)c2)c1F [Example 190-L]
23,41,"NCc1cccc(-c2cccc(C(=O)Nc3ccccc3CC(=O)O)c2)c1F [Example 37, 2-(2-(3′-(Aminomethyl)-2′-fluoro-[1,1′-biphenyl]-3-ylcarboxamido)phenyl)acetic acid]"

# From patent publication US20160145247A1, “Aminomethyl-Biaryl Derivatives Complement Factor D inhibitors and uses thereof” (NOVARTIS AG, priority 2013, published 2016)
